Counter-ions that a name gives are not always drawn.
Tests used:
Assay type in all cases: physicochemical
[1] = Inventors' studies of the known crystalline forms of vortioxetine hydrobromide of WO2007/144005A1; details: for Stability under high-temperature conditions: hydrobromide
Excerpt: In studies, the inventors of the present invention found out that the multiple crystalline forms of vortioxetine hydrobromide disclosed in WO2007/144005A1 have the following disadvantages: […]

[2] = Dissolution comparison of sustained-release tablets made by the method of example 141; details: water, 37° C., paddle 50 r/min
Procedure: The crystalline form of vortioxetine hemihydrobromide of the present invention and the β Form of vortioxetine hydrobromide prepared in preparation example 2 were tabletted by the method of example 141 and then subjected to dissolution comparison. Water was used as the dissolution medium. Parameter setting of the dissolution tester: The temperature was 37° C. The rotate speed of the stirring paddle was 50 r/min Take 3 ml of the dissolution medium out at 0.5, 1, 2, 6 and 12 hours respectively. Each time after sampling, 3 mL of water was added back to the dissolution medium to supplement the volume. The concentration of the dissolution medium at each time point was determined by HPLC.

[3] = Dissolution of tablets made by the method of example 105 (paddle method, water); details: 900 mL water, 37° C., paddle 50 r/min
Procedure: The crystalline form of vortioxetine hemihydrobromide of the present invention, the β Form of vortioxetine hydrobromide prepared in preparation example 2 and the β Form of vortioxetine hydrobromide containing 20% of the crystalline form of vortioxetine hemihydrobromide of the present invention were tabletted by the method in example 105 and then subjected to phase stability comparison. Dissolution was determined by reference to the dissolution conditions of Benorilate Tablets described in 2010 Chinese Pharmacopoeia. The paddle method was used with the paddle rotation speed at 50 r/min 900 mL of water was the dissolution medium. The temperature was 37° C. Take 3 mL of the dissolution medium for sampling at 2, 10, 20, 40 and 60 min respectively. Each time after sampling, 3 mL of water was added back to dissolution medium to supplement the volume. The concentration of the dissolution medium at each time point was measured by HPLC, and the dissolution profile was plotted.

[4] = Hygroscopicity comparison by DVS isothermal sorption curve; details: 20%-80% RH range
Procedure: Dynamic vapor sorption (DVS) data were collected using TA Instruments Q5000 TGA. The instrument control software was Thermal Advantage, and the analytical software was Universal Analysis. Usually, 1-10 mg of the sample was placed in a platinum pan and the weight change of the sample during experiments was recorded. The relative humidity was usually programmed to change from 20% to 80% and then back to 20%, and an isothermal sorption curve could be generated. Depending on specific situations, different sorption and desorption procedures might be used.
Hygroscopicity comparison: DVS isothermal sorption curves were used, and weight changes within the 20%-80% RH range were measured.

[5] = Stability competition test (competitive slurry, XRPD analysis); details: for Stability Competition Test: crystalline form after competitive slurry (XRPD): ethanol or water, equal quantity of both forms slurried 7 days; for Stability competition test: crystalline form after slurry (summary statement): slurried in water or ethanol, temperature not stated
Procedure: Stability competition test: An equal quantity (250 mg) of the crystalline vortioxetine hemihydrobromide form of the present invention prepared in example 4 and the β Form of vortioxetine hydrobromide prepared in preparation example 2 were respectively added to 3 mL of ethanol or water to produce suspensions. No solvate was formed in ethanol or water. The suspensions were slurried for 7 days at room temperature or at 60° C., and then XRPD characterization analyses were performed.

[6] = Storage of the crystalline form in desiccators at controlled humidity; details: desiccators at 10% RH-90% RH, room temperature, 4 months
Excerpt: It is more temperature and humidity robust and is less likely to have content uniformity and stability issues during pharmaceutical production and storage, thus reduces the risk of inefficacy and safety issue caused thereby and improves dosing accuracy.

[7] = sampling time 0.5 hours, hydrobromide
[8] = sampling time 1 hour, hydrobromide
[9] = sampling time 2 hours, hydrobromide
[10] = sampling time 6 hours, hydrobromide
[11] = sampling time 12 hours, hydrobromide
[12] = sampling time 2 min, hydrobromide
[13] = sampling time 10 min, hydrobromide
[14] = sampling time 20 min, hydrobromide
[15] = sampling time 40 min, hydrobromide
[16] = listed as the known β Form of vortioxetine hydrobromide, hydrobromide
[17] = sampling time 0.5 hours, hemihydrobromide
[18] = sampling time 1 hour, hemihydrobromide
[19] = sampling time 2 hours, hemihydrobromide
[20] = sampling time 6 hours, hemihydrobromide
[21] = sampling time 12 hours, hemihydrobromide
[22] = sampling time 2 min, hemihydrobromide
[23] = sampling time 10 min, hemihydrobromide
[24] = sampling time 20 min, hemihydrobromide
[25] = sampling time 40 min, hemihydrobromide

What does the source list for Cc1ccc(Sc2ccccc2N2CCNCC2)c(C)c1 [ethyl acetate solvate of vortioxetine hydrobromide]?
Stability under high-humidity conditions ([1]; high-humidity conditions): transformed to hydrate; Stability under high-temperature conditions [1]: lost ethyl acetate

With Cc1ccc(Sc2ccccc2N2CCNCC2)c(C)c1 [hydrate of vortioxetine hydrobromide, vortioxetine hydrobromide] as the compound, how does the “Stability under high-temperature conditions” value [1] read?
The value was “lost water”.

Which Concentration [2, 7] does the source give for Cc1ccc(Sc2ccccc2N2CCNCC2)c(C)c1 [the β Form of vortioxetine hydrobromide, 1-[2-(2,4-dimethylphenylsulfanyl)phenyl]piperazine hydrobromide] here?
Its Concentration is 16370 ng/mL.

What about the Cumulative dissolution [2, 7] of the same compound?
The Cumulative dissolution was 50.0%.

And the Concentration [2, 8]?
Its Concentration is 29710 ng/mL.

What about the Cumulative dissolution [2, 8] of the same compound?
The Cumulative dissolution was 90.9%.

And the Concentration [2, 9]?
The Concentration was 30810 ng/mL.

What about the Cumulative dissolution [2, 9] of the same compound?
The Cumulative dissolution was 94.2%.

And the Concentration [2, 10]?
The Concentration was 31560 ng/mL.

And the Cumulative dissolution [2, 10]?
Its Cumulative dissolution is 96.5%.

And the Concentration [2, 11]?
The Concentration was 33420 ng/mL.

And the Cumulative dissolution [2, 11]?
The Cumulative dissolution was 100.0%.

What about the Concentration [3, 12] of the same compound?
The Concentration was 13120 ng/mL.

And the Cumulative dissolution [3, 12]?
Its Cumulative dissolution is 40.1%.

And the Concentration [3, 13]?
Its Concentration is 28050 ng/mL.

What about the Cumulative dissolution [3, 13] of the same compound?
Its Cumulative dissolution is 85.8%.

And the Concentration [3, 14]?
The Concentration was 30020 ng/mL.

What about the Cumulative dissolution [3, 14] of the same compound?
The Cumulative dissolution was 91.8%.

What about the Concentration [3, 15] of the same compound?
The Concentration was 31660 ng/mL.

What about the Cumulative dissolution [3, 15] of the same compound?
The Cumulative dissolution was 96.8%.

And the Concentration ([3]; sampling time 60 min, hydrobromide)?
Its Concentration is 33420 ng/mL.

What about the “Hygroscopicity Comparison (weight change)” value [4, 16] of the same compound?
Its value is 0.60%.

And the “Stability Competition Test: crystalline form after competitive slurry (XRPD)” value (“Stability Competition Test … (XRPD)” for short) ([5]; 60° C., listed as the known β Form of vortioxetine hydrobromide, hydrobromide)?
The value was “completely transformed into the vortioxetine hemihydrobromide crystalline form of the present invention”.

And the “Stability Competition Test … (XRPD)” value ([5]; room temperature, listed as the known β Form of vortioxetine hydrobromide, hydrobromide)?
The value was “completely transformed into the vortioxetine hemihydrobromide crystalline form of the present invention”.

And the “Stability competition test: crystalline form after slurry (summary statement)” value (“Stability competition test … (summary statement)” below) ([5]; hydrobromide)?
The value was “failed to maintain its original crystalline form and transformed to the vortioxetine hemihydrobromide crystalline form of the present invention”.

And the “Stability competition test … (summary statement)” value [5, 16]?
The value was “completely transformed to the crystalline vortioxetine hemihydrobromide of the present invention”.

What about the “Stability competition test … (summary statement)” value ([5]; listed as β Form of vortioxetine hydrobromide, hydrobromide) of the same compound?
The value was “failed to maintain its original crystalline form”.

For Cc1ccc(Sc2ccccc2N2CCNCC2)c(C)c1 [vortioxetine hemihydrobromide], which Concentration [2, 17] is on record?
The Concentration was 2250 ng/mL.

What about the Cumulative dissolution [2, 17] of the same compound?
The Cumulative dissolution was 8.1%.

And the Concentration [2, 18]?
Its Concentration is 3980 ng/mL.

And the Cumulative dissolution [2, 18]?
Its Cumulative dissolution is 14.3%.

And the Concentration [2, 19]?
Its Concentration is 7650 ng/mL.

What about the Cumulative dissolution [2, 19] of the same compound?
Its Cumulative dissolution is 27.4%.

And the Concentration [2, 20]?
The Concentration was 12640 ng/mL.

What about the Cumulative dissolution [2, 20] of the same compound?
The Cumulative dissolution was 58.5%.

What about the Concentration [2, 21] of the same compound?
Its Concentration is 26330 ng/mL.

And the Cumulative dissolution [2, 21]?
Its Cumulative dissolution is 94.5%.

And the Concentration [3, 22]?
The Concentration was 2270 ng/mL.

And the Cumulative dissolution [3, 22]?
The Cumulative dissolution was 8.2%.

And the Concentration [3, 23]?
Its Concentration is 4320 ng/mL.

And the Cumulative dissolution [3, 23]?
Its Cumulative dissolution is 15.5%.

What about the Concentration [3, 24] of the same compound?
The Concentration was 7720 ng/mL.

And the Cumulative dissolution [3, 24]?
Its Cumulative dissolution is 27.7%.

What about the Concentration [3, 25] of the same compound?
Its Concentration is 11330 ng/mL.

And the Cumulative dissolution [3, 25]?
Its Cumulative dissolution is 52.4%.

What about the Cumulative dissolution ([3]; sampling time 60 min) of the same compound?
The Cumulative dissolution was 100.0%.

What about the Concentration ([3]; sampling time 60 min, hemihydrobromide) of the same compound?
Its Concentration is 27860 ng/mL.

What about the “Hygroscopicity Comparison (weight change)” value ([4]; listed as Example 4, hemihydrobromide) of the same compound?
Its value is 0.28%.

What about the “Hygroscopicity Comparison (weight change)” value ([4]; listed as the vortioxetine hemihydrobromide crystalline form of the present invention, hemihydrobromide) of the same compound?
The value was 0.28%.

What about the “Stability Competition Test … (XRPD)” value ([5]; 60° C., listed as the vortioxetine hemihydrobromide crystalline form of the present invention, hemihydrobromide) of the same compound?
The value was “present invention kept unchanged””.

And the “Stability Competition Test … (XRPD)” value ([5]; room temperature, listed as the vortioxetine hemihydrobromide crystalline form of the present invention, hemihydrobromide)?
The value was “present invention kept unchanged””.

And the “Stability competition test … (summary statement)” value ([5]; hemihydrobromide)?
Its value is “keeping its crystalline form unchanged”.

Which “Crystalline form after storage” value [6] does the source give for Cc1ccc(Sc2ccccc2N2CCNCC2)c(C)c1 [vortioxetine hydrobromide isopropanol solvate] here?
Its value is “remained unchanged”.

Which “Crystalline form stability at room temperature” value ([1]; room temperature) does the source give for Cc1ccc(Sc2ccccc2N2CCNCC2)c(C)c1 [α Form of vortioxetine hydrobromide, vortioxetine hydrobromide] here?
The value was “transformed to the β Form of vortioxetine hydrobromide”.

What does the source list for Cc1ccc(Sc2ccccc2N2CCNCC2)c(C)c1 [γ Form of vortioxetine hydrobromide, vortioxetine hydrobromide]?
Stability (general finding) [1]: very unstable; Hygroscopicity ([1]; low-humidity conditions): 2.0%

From US20160200698A1, “VORTIOXETINE SALT AND CRYSTAL THEREOF, THEIR PREPARATION METHOD, PHARMACEUTICAL COMPOSITIONS AND USAGE” (HANGZHOU PUSHAI PHARMACEUTICAL TECHNOLOGY CO., LTD, priority 2013, published 2016)
